Reference: ChEMBL document CHEMBL1149999, “Synthesis and pharmacological activity of a macrocyclic benzamide” (Bioorg Med Chem Lett, 1995)

Key:
Format in all cases: tissue-based
[1] = molecular target: 5-hydroxytryptamine receptor 4 (Rattus norvegicus, UniProt Q62758); experiment: Binding affinity against 5-hydroxytryptamine 4 receptor using [3H]GR-113808 as radioligand in rat striatum
[2] = molecular target: T1, Serotonin 3 (5-HT3) receptor (Rattus norvegicus, UniProt P35563+Q9JJ16); experiment: Binding affinity against 5-hydroxytryptamine 3 receptor using [3H]BRL-43694 as radioligand in rat posterior cortex
T1 sequence (P35563 whole entry): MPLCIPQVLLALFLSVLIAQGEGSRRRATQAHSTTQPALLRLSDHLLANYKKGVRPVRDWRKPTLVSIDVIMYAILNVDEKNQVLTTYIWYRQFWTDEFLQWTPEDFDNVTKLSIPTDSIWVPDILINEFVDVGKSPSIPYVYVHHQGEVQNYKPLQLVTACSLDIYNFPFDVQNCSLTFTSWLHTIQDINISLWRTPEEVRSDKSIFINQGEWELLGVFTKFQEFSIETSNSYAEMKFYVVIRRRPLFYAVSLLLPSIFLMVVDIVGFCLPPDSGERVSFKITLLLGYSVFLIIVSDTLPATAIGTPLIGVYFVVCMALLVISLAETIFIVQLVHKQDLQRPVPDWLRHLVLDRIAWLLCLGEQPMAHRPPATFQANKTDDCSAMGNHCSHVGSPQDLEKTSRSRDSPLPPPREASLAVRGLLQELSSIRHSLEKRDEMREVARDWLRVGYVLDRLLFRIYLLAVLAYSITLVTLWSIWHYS
T1 sequence (Q9JJ16 whole entry): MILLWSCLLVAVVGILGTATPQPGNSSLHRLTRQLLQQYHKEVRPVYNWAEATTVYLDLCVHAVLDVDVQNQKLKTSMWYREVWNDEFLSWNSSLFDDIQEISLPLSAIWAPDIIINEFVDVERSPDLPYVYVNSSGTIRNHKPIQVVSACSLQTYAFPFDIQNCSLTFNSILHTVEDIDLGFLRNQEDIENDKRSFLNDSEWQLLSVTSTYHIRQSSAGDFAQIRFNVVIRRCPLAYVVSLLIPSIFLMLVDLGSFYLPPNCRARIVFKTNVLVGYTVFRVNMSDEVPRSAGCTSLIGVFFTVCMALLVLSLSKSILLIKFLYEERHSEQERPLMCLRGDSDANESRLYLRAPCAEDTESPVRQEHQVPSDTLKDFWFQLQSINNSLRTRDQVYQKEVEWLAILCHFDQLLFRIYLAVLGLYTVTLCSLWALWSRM

[3] = molecular target: D(2) dopamine receptor (Rattus norvegicus, UniProt P61169); experiment: Binding affinity against Dopamine receptor D2 using [3H]spiperone as radioligand in rat striatum
Chain of D(2) dopamine receptor (P61169 whole entry): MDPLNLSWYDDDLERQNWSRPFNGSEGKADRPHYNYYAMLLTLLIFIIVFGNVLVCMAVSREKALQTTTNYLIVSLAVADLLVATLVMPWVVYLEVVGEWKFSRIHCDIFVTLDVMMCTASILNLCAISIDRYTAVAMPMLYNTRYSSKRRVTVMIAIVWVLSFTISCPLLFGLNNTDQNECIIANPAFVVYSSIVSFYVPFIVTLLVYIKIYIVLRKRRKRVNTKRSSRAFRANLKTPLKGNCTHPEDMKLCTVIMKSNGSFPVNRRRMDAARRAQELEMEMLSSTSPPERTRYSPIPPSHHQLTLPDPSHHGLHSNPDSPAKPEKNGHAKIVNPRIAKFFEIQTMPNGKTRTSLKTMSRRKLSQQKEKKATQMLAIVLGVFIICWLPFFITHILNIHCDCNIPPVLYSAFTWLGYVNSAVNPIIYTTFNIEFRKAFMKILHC

Chain of 5-hydroxytryptamine receptor 4 (Q62758 whole entry): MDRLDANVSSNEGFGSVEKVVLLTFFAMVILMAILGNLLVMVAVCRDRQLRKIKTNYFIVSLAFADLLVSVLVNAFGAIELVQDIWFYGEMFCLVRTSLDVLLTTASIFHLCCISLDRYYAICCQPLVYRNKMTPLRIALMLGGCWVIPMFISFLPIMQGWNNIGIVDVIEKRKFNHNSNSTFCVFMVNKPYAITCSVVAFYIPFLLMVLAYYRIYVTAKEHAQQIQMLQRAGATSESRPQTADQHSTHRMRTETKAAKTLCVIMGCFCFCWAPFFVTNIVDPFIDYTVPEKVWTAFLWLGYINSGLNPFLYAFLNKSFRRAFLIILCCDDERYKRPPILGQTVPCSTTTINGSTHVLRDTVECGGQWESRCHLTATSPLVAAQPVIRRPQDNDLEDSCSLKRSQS

Nc1cc2c(cc1Cl)C(=O)NC1CCN(CCOCCO2)CC1
Ki [1]: 29.7 nM
Ki [2]: 53.2 nM
Ki [3]: > 1000 nM

COc1cc(N)c(Cl)cc1C(=O)NC1CC2CCC(C1)N2Cc1ccccc1 (centres undefined)
Ki [1]: 233 nM
Ki [2]: > 1000 nM
Ki [3]: 0.28 nM

COc1cc(N)c(Cl)cc1C(=O)NC1CCN(C)CC1
Ki [1]: 832 nM
Ki [2]: 267 nM
Ki [3]: > 1000 nM

COc1cc(N)c(Cl)cc1C(=O)N[C@@H]1CN2CCC1CC2
Ki [1]: 383 nM
Ki [3]: > 1000 nM

COc1cc(N)c(Cl)cc1C(=O)NC1CC2CCC(C1)N2C (stereo in doubt)
Ki [1]: 48 nM
Ki [2]: 0.8 nM
Ki [3]: > 1000 nM

COc1cc(N)c(Cl)cc1C(=O)NC1CC2CCC(C1)N2C (stereo in doubt; 5)
Ki [1]: > 1000 nM
Ki [2]: 41.8 nM
Ki [3]: > 1000 nM

COc1cc(N)c(Cl)cc1C(=O)NC1CCN(Cc2ccccc2)CC1 [CLEBOPRIDE]
Ki [1]: 104 nM
Ki [2]: > 1000 nM
